The test system of series [1] is L1210. Briefly: Optimum dose against murine L1210 leukemia. Format: functional, Mus musculus.
The subject of a further series is Colon 26 (Mus musculus). Briefly: Optimum dose against solid neoplasm colon 26.
The next series deals with B16. Description: Optimum dose against solid neoplasm B-16 melanoma. Format: functional, Mus musculus.
For series [2], the system named is P388. Description: Optimum dose against P388 murine tumor cell line. Format: functional, Mus musculus.
Series [3] can be described thus: Half life at 110 degree Centigrade. Format: ADME.
A short description of series [4]: Half life at 55 degree Centigrade. The format is ADME.
Series [5] is described as follows: Half life at 37 degree Centigrade. The format is ADME.
Another series concerns HMEC. Briefly: Cytotoxic activity against HMEC human mammary epithelial normal cell lines. Format: functional, cell-based.
For another series, the system named is U-251. Briefly: Cytotoxic activity against U-251 MG glioblastoma tumor cell lines. Format: functional, cell-based. Conditions: Homo sapiens.
The next series deals with HT-29. Briefly: Cytotoxic activity against HT-29 Colon carcinoma tumor cell lines. The format is functional, cell-based. Conditions: Homo sapiens.
Another series relates to UCLA P-3. Description: Cytotoxic activity against UCLA P-3 lung carcinoma tumor cell lines. Format: functional, cell-based. Conditions: Homo sapiens.
A further series relates to OVCAR-4. Briefly: Cytotoxic activity against Ovcar-4 ovarian carcinoma tumor cell lines. As to conditions: Homo sapiens. Format: functional, cell-based.
The next series deals with H322. Description: Cytotoxic activity against H-322 lung carcinoma tumor cell lines. Format: functional, cell-based. As to conditions: Homo sapiens, NCI-H322.
The next series has as its system M21. Description: Cytotoxic activity against M-21 melanoma tumor cell lines. The format is functional, cell-based. Conditions: Homo sapiens.
The next series concerns RPMI-8226. Description: Cytotoxic activity against RPMI-8226 myeloma tumor cell lines. Format: functional, cell-based. Conditions: Homo sapiens.
For a further series, the system named is TCAF-DAX. Description: Cytotoxic activity against TCAF-DAX T-cell leukemia tumor cell lines. Format: functional, cell-based. Conditions: Homo sapiens.
The next series deals with HL-60. Description: Cytotoxic activity against HL-60 promyelocytic leukemia tumor cell lines. Format: functional, cell-based. Conditions: Homo sapiens.
Series [6] has as its system P388. Briefly: Cytotoxic activity against P-388 mouse leukemia cell lines. The format is functional, cell-based.
The subject of a further series is HNBM. Briefly: Cytotoxic activity against HNBM bone marrow normal cell lines. The format is functional, cell-based. As to conditions: Homo sapiens.
The test system of series [7] is L1210. Briefly: Cytotoxic activity against L-1210 mouse leukemia tumor cell lines. The format is functional, cell-based.
Another series relates to MCF7. Description: Cytotoxic activity against MCF-7 breast carcinoma tumor cell lines. The format is functional, cell-based. Conditions: Homo sapiens.
For the next series, the system named is CAPAN-1. Description: Cytotoxic activity against Capan-1 pancreatic carcinoma tumor cell lines. The format is functional, cell-based. As to conditions: Homo sapiens.
A further series relates to SK-MEL-28. Description: Cytotoxic activity against SK-Mel-28 melanoma tumor cell lines. The format is functional, cell-based. Conditions: Homo sapiens.
The subject of a further series is OVCAR-3. Description: Cytotoxic activity against Ovcar-3 ovarian carcinoma tumor cell lines. The format is functional, cell-based. Conditions: Homo sapiens.
The next series concerns M14. Briefly: Cytotoxic activity against M-14 melanoma tumor cell lines. As to conditions: Homo sapiens. The format is functional, cell-based.
In the next series the test system is TCAF. Briefly: Cytotoxic activity against TCAF T-cell leukemia tumor cell lines. The format is functional, cell-based. As to conditions: Homo sapiens.
The next series deals with U-87 MG. Briefly: Cytotoxic activity against […] astrocytoma tumor cell lines. Conditions: Homo sapiens. Format: functional, cell-based, U-87MG ATCC.
Another series concerns NHDF. Description: Cytotoxic activity against NHDF normal human dermal fibroblast cell lines. Format: functional, cell-based.

These results are taken from ChEMBL document CHEMBL1129320, “The enediyne antibiotics” (J Med Chem, 1996).

By half-life is commonly meant the time needed for the level to fall by half in the phase considered. The low end stands for rapid decline, the high end for slow decline. As a reminder, the IC50 is the midpoint of a concentration-inhibition curve. Low values mean higher potency, high ones lower potency.

As to `CCNC1COC(OC2C(OC3C#C/C=C\C#C[C@]4(O)CC(=O)C(NC(=O)OC)=C3/C4=C/CSSSC)OC(C)C(NOC3CC(O)C(SC(=O)c4c(C)c(I)c(O)c(OC)c4OC)C(C)O3)C2O)CC1OC` (stereo partly drawn) [CALICHEAMICIN ALPHA1 I], the OD in the series with L1210 [1], in the series on Colon 26 (Mus musculus), in the series with B16 and with P388 [2] was 5 µg/kg in each case.

As to `COC(=O)NC1=C2/C(=C/CSSSC)[C@](O)(C#C/C=C\C#CC2OC2OC(C)C(NOC3CC(O)C(SC(=O)c4c(C)c(Br)c(OC5OC(C)C(O)C(OC)C5O)c(OC)c4OC)C(C)O3)C(O)C2OC2CC(OC)C(NC(C)C)CO2)CC1=O` (stereo partly drawn) [CALICHEAMICIN BETA1 BR], the OD in the series on L1210 [1], in the series with Colon 26 (Mus musculus), in the series on B16 and in the series on P388 [2] was 5 µg/kg in each case.

`Cc1c(C)c(C(=O)OC(C)(C)C)c2c(c1C(=O)OC(C)(C)C)C#CCCCC(O)C#C2` (stereo not drawn) gave a half-life in series [3] of 74 h.

For the compound `COC(=O)NC1=C2/C(=C/CSSSC)[C@](O)(C#C/C=C\C#CC2OC2OC(C)C(NOC3CC(O)C(SC(=O)c4c(C)c(I)c(OC5OC(C)C(O)C(OC)C5O)c(OC)c4OC)C(C)O3)C(O)C2OC2CC(OC)C(NC(C)C)CO2)CC1=O` (stereo partly drawn) [CALICHEAMICIN BETA1 I], the OD with L1210 [1], with Colon 26 (Mus musculus), in the series on B16 and in the series on P388 [2] was 5 µg/kg throughout.

Compound `CC1=C(C)C(=O)C2=C(C#CCCCC(O)C#C2)C1=O` (stereo not drawn) had a half-life in series [4] of 2.6 h.

The compound `CNC1C(O[C@H]2C#C/C=C\C#C[C@]3(O)CC(=O)C(NC(=O)OC)[C@]24SCCC=C34)OC(C)C(O)C1O` (stereo partly drawn) had a T1/2 in series [5] of 4.5 s.

`CCNC1COC(OC2C(OC3C#C/C=C\C#C[C@]4(O)CC(=O)C(NC(=O)OC)=C3/C4=C/CSSSC)OC(C)C(NOC3CC(O)C(SC(=O)c4c(C)c(Br)c(OC5OC(C)C(O)C(OC)C5O)c(OC)c4OC)C(C)O3)C2O)CC1OC` (stereo partly drawn) [CALICHEAMICIN GAMMA1 BR]: the OD with L1210 [1], in the series on Colon 26 (Mus musculus), with B16 and in the series on P388 [2] was 5 µg/kg each time.

`COC(=O)NC1=C2/C(=C/CSSSC)[C@](O)(C#C/C=C\C#CC2OC2OC(C)C(NOC3CC(O)C(SC(=O)c4c(C)c(I)c(OC5OC(C)C(O)C(OC)C5O)c(OC)c4OC)C(C)O3)C(O)C2O)CC1=O` (stereo partly drawn) [CALICHEAMICIN ALPHA3 I]: the OD with L1210 [1], in the series on Colon 26 (Mus musculus), in the series with B16 and in the series on P388 [2] was 5 µg/kg throughout.

On to `CCN[C@H]1CO[C@@H](O[C@H]2[C@H](O[C@H]3C#C/C=C/C#C[C@@]4(O)CC(=O)C(NC(=O)OC)=C3/C4=C\CSSSC)O[C@H](C)[C@@H](NO[C@H]3C[C@H](O)[C@H](SC(=O)c4c(C)c(I)c(O[C@@H]5O[C@@H](C)[C@H](O)[C@@H](OC)[C@H]5O)c(OC)c4OC)[C@@H](C)O3)[C@@H]2O)C[C@@H]1OC` [CALICHEAMICIN GAMMA1 I], for which the OD in the series with L1210 [1], with Colon 26 (Mus musculus), in the series on B16 and in the series with P388 [2] was 5 µg/kg each time.

Take `O=C(OCCS(=O)(=O)c1ccccc1)N1c2ccc(OCCO)cc2[C@@]23O[C@]24CCC[C@H]3C#C/C=C\C#C[C@H]14`: the IC50 in the series on HMEC was determined as 6300 nM; in the series with U-251, 390 nM; in the series with HT-29, 1600 nM; in the series on UCLA P-3, 98 nM; in the series with OVCAR-4, 780 nM; in the series on H322 it was 390 nM. For the same compound, the IC50 with M21 came out at 1600 nM; in the series with RPMI-8226, 7.7 nM; in the series with TCAF-DAX, 1.7 nM; with HL-60, 0.036 nM; in the series on P388 [6], 4.6 nM; in the series with HNBM, 50000 nM. In addition, the half-maximal inhibitory concentration (IC50) is 1.3 nM with L1210 [7]; 780 nM with MCF7; 3.1 nM in the series with CAPAN-1; 3100 nM in the series with SK-MEL-28; 780 nM in the series on OVCAR-3; 1600 nM in the series with M14. Further, the IC50 with TCAF was found to be 1.1 nM; with U-87 MG, 780 nM; in the series with NHDF, 5000 nM.

`CC1=C(C)C(=O)C2=C(C#CCCCC(=O)C#C2)C1=O` registered a half-life in series [4] of 0.533 h.

`CNC1COC(OC2C(OC3C#C/C=C\C#C[C@]4(O)CC(=O)C(NC(=O)OC)=C3/C4=C/CSSSC)OC(C)C(NOC3CC(O)C(SC(=O)c4c(C)c(I)c(OC5OC(C)C(O)C(OC)C5O)c(OC)c4OC)C(C)O3)C2O)CC1OC` (stereo partly drawn) [CALICHEAMICIN DELTA1 I]: the OD in the series on L1210 [1], in the series with Colon 26 (Mus musculus), in the series on B16 and in the series on P388 [2] was 5 µg/kg throughout.
